Reference: patent publication US20210323918A1, “COMPOSITIONS AND METHODS FOR SUPPRESSING AND/OR TREATING A GROWTH RELATED DISEASE AND/OR A CLINICAL CONDITION THEREOF” (CK Biotech Inc., priority 2018, published 2021)
Like-named read-outs stand apart in the source and are kept apart here.

Molecular target: T1, CXXC5-DVL interaction (Homo sapiens, UniProt O14640)
T1 construct: 5 mg/ml purified DVL PDZ domain was incubated in each well
T1 sequence (O14640 251-323 limits assumed): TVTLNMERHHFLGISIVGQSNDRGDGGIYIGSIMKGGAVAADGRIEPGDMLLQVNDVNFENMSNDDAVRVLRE
Assay: In vitro CXXC5-DVL binding assay (FITC-tagged PTD-DBMP on DVL PDZ domain)
Details: read-out: CXXC5-DVL interaction (%)
Method: Screening for compounds that inhibit the CXXC5-DVL interaction. […] Briefly, 5 mg/ml purified DVL PDZ domain was incubated in each well of a 96-well Maxibinding Immunoplate (SPL) at 4° C. for 16 hours. After the addition of 10 μM FITC-tagged PTD-DBMP to each well, each compound in the chemical library or control (DMSO) was treated to the well at a final concentration of 30 μM. The fluorescence intensity was measured using a Fluorstar Optima microplate reader (BGM Lab Technologies, Ortenberg, Germany). The binding values were calculated as a percent ratio of the fluorescent intensity normalized to the DMSO-treated control.

[1] = compound 30 μM, fluorescent intensity normalized to DMSO-treated control

Compound | remaining activity at 30 µM [1] [%] | remaining activity at 30 µM [%]
NC(Cc1cc(O)c(O)cc1O)C(=O)O (centres unmarked) [Compound 10] |  | 1.39
COC(=O)C1=C(C)N/C(=C/c2cc(C)n(-c3ccccc3F)c2C)C1=O [Compound 4] | 4.76 | 
COc1ccc(C2CC(C(F)(F)F)n3ncc(C(=O)O)c3N2)cc1OC (centres unmarked) [Compound 2] | 1.01 | 
CN1CCc2cc(O)cc3c2[C@H]1Cc1ccc(O)c(O)c1-3 [Compound 9] | 2.5 | 
CCN(CC)S(=O)(=O)c1ccc(OC)c(Nc2cc(-c3ccccc3)nc(C)n2)c1 [Compound 6] | 7.63 | 
COc1ccc(C)cc1/N=N/c1ccc(O)c2nc(/C=N/O)ccc12 [Compound 1] | 7.62 | 
O=C1Nc2ccccc2/C1=C1/Nc2ccccc2/C1=N\O [Compound 12, indirubin-3′-oxime, reference compound] | 7.65 | 
O=c1c(O)c(-c2ccc(O)cc2O)oc2cc(O)cc(O)c12 [Compound 15] | 7.43 | 
O=C(O)C1Sc2[nH]c(=O)sc2C2c3cc(Br)cc(Br)c3OC(=O)C12 (centres unmarked) [Compound 5] | 1.19 | 
CN(C)c1ccc(O)c2c1C[C@H]1C[C@H]3[C@H](N(C)C)C(O)=C(C(N)=O)C(=O)[C@@]3(O)C(O)=C1C2=O [Compound 16] |  | 4.37

The next lines start with results.

remaining activity at 30 µM [1] [%] | Compound | remaining activity at 30 µM [%]
4.01 | Cc1cc(C)c2c(O)nc(SCC(=O)c3ccc(O)c(O)c3)nc2n1 [Compound 3] | 
7.61 | Oc1cc(O)cc(/C=C/c2ccc(O)c(O)c2)c1 [Compound 17] | 
7.65 | CC(N)(Cc1ccc(O)c(O)c1)C(=O)O (centres unmarked) [Compound 14] | 
0.72 | COc1ccc(C2CC(=O)C3=C(C2)Nc2onc(C)c2C3c2ccc(O)c(O)c2)cc1OC (centres unmarked) [Compound 7] | 
1.73 | O=c1cc(O)cc(/C=C/c2ccc(O)c(O)c2)o1 [Compound 11] | 
7.66 | O=c1c(O)c(-c2cc(O)c(O)c(O)c2)oc2cc(O)cc(O)c12 [Compound 13] | 
5.7 | O=C(OCCN1CCOCC1)C1(c2ccccc2)CCCCC1 [Compound 18] | 
